# Test results taken from patent publication US11911521B2, “Antibacterial nanofiber” (UNIVERSITY OF MANITOBA, priority 2017, dated 2024).
# Experiments:
# Assay type in all cases: cell-based
# [1] = test system: ATCC-PCS-201 neonatal human dermal fibroblast; assay: In vitro cytotoxicity assay (MTT) on fibroblast cells; conditions: after 24 h of contact, free BTAC at 34 mg/L
# Method: An in vitro cytotoxicity assay was conducted on fibroblast cells (ATCC-PCS-201 neonatal human dermal fibroblast) to evaluate the effect of drug-loaded nanofibers. Nanofibers were cut in to the same shape and weighted to 4 mg (triplicate). They were pre-soaked in 1 mL of ethanol for 10 min. Samples were exposed to UV light for 45 min (each side). Fibroblast cells were cultured in 24 well-plates at density of 1×10^5 (cell/mL). After reaching to 90% confluence, 2 mL of fibroblast culture medium was added to each of the wells and the dressings. Afterwards, the cells were incubated at 37° C. for 24 h. Cell viability was determined using MTT assay after removal of dressings. Each well received 500 μL of 1:10 (v/v) MTT and fibroblast medium solution. Subsequently, after 2 h incubation at 37° C., the culture medium with the MTT solution were aspirated and replaced by 500 μL DMSO. Finally, 100 μL aliquots from each well (in triplicate) were transferred to 96-well plates and viability of cells was evaluated using spectrophotometer at 570 nm wavelength (PowerWave™ XS2 Microplate Spectrophotometer, BioTek Instruments Inc., Canada).
# [2] = test system: Escherichia coli (E-coli—ATCC 25922); assay: Antibacterial test by colony counting method, E. coli; conditions: for logarithm reduction of bacteria / percentage reduction of bacteria: E. coli ~8 Log CFU/mL
# Method: (§1) The antibacterial activity of the nanofiber mats was tested by colony counting method against Staphylococcus aureus (S. aureus) and E. coli, which are commonly found on burn wounds. For the antibacterial studies, logarithmic-phase cultures were prepared by initially suspending several colonies in phosphate buffered saline (PBS, 0.1 M, pH 7.4) at a density equivalent to a 0.5 McFarland standard of 1×10^8 colony forming units (CFU) mL^−1 and then diluted 100 times to 1×10^6 CFU mL^−1. 15 μL of the diluted E-coli and S. aureus suspension was further diluted into 45 mL cation-supplemented MuellerHinton (MH) broth and TSB, respectively. After culturing in the incubator at 37° C. for overnight, the concentration of bacteria went up to 10^8 CFU mL^−1. 2 mL of bacteria suspension was added to 4 mg of nanofibers and incubated. At the predetermined contact times, 150 μL of bacteria culture was taken from the flask, neutralized, and decimal serial dilutions with PBS were repeated with each initial sample. 30 μL of the diluted sample was then spread onto four zones of a Tryptone Soya agar plate (CM 0131, OXOID). After incubation of the plates at 37° C. for 18 h, the number of viable bacteria (colonies) was counted manually for control (A, bacteria suspension without sample) and BTAC-loaded nanofibers (B). Bacteria reduction was reported as percentage and Log 10. The percentage reduction of bacteria (%)=(A−B)/A×100; and logarithm reduction=log(A/B).
# [3] = test system: Staphylococcus aureus (S. aureus—ATCC 29213); assay: Antibacterial test by colony counting method, S. aureus; conditions: for logarithm reduction of bacteria / percentage reduction of bacteria: S. aureus ~8 Log CFU/mL
# Method: as §1
smiles,measurement,setting,value
"CCCCCCCCCCCCCC[N+](C)(C)Cc1ccccc1 [BTAC, benzyl dimethyl tetradecyl ammonium chloride]",fibroblast cell viability,[1],55.2±4.0
same,logarithm reduction of bacteria,[2]; contact time 5 min,1.3 ± 0.0 Log10
same,percentage reduction of bacteria,[2]; contact time 5 min,95.3 ± 0.3%
same,logarithm reduction of bacteria,[2]; contact time 10 min,1.4 ± 0.1 Log10
same,percentage reduction of bacteria,[2]; contact time 10 min,96.0 ± 0.2%
same,logarithm reduction of bacteria,[2]; contact time 20 min,1.9 ± 0.1 Log10
same,percentage reduction of bacteria,[2]; contact time 20 min,98.8 ± 0.5%
same,logarithm reduction of bacteria,[2]; contact time 30 min,8.9 Log10
same,percentage reduction of bacteria,[2]; contact time 30 min,100.0%
same,time to 100% bacteria inhibition,[2]; against E. coli,< 60 min
same,logarithm reduction of bacteria,[3]; contact time 5 min,1.4 ± 0.2 Log10
same,percentage reduction of bacteria,[3]; contact time 5 min,96.1 ± 0.2%
same,logarithm reduction of bacteria,[3]; contact time 10 min,1.8 ± 0.3 Log10
same,percentage reduction of bacteria,[3]; contact time 10 min,98.5 ± 0.9%
same,logarithm reduction of bacteria,[3]; contact time 20 min,8.9 Log10
same,percentage reduction of bacteria,[3]; contact time 20 min,100.0%
same,time to 100% bacteria inhibition,[3]; against S. aureus,< 60 min
